{"source": "ChEMBL document CHEMBL4507319", "about": "(2021)", "key": {"[1]": {"biological_target": "Activin receptor type-1-like (Homo sapiens) (UniProt P37023)", "test": "ALK1(h) Eurofins kinase panel", "details": "Compound concentration 1.0 uM"}, "[2]": {"biological_target": "T1, Ephrin type-A receptor 3 (Homo sapiens) (UniProt P29320)", "T1 sequence (whole entry)": "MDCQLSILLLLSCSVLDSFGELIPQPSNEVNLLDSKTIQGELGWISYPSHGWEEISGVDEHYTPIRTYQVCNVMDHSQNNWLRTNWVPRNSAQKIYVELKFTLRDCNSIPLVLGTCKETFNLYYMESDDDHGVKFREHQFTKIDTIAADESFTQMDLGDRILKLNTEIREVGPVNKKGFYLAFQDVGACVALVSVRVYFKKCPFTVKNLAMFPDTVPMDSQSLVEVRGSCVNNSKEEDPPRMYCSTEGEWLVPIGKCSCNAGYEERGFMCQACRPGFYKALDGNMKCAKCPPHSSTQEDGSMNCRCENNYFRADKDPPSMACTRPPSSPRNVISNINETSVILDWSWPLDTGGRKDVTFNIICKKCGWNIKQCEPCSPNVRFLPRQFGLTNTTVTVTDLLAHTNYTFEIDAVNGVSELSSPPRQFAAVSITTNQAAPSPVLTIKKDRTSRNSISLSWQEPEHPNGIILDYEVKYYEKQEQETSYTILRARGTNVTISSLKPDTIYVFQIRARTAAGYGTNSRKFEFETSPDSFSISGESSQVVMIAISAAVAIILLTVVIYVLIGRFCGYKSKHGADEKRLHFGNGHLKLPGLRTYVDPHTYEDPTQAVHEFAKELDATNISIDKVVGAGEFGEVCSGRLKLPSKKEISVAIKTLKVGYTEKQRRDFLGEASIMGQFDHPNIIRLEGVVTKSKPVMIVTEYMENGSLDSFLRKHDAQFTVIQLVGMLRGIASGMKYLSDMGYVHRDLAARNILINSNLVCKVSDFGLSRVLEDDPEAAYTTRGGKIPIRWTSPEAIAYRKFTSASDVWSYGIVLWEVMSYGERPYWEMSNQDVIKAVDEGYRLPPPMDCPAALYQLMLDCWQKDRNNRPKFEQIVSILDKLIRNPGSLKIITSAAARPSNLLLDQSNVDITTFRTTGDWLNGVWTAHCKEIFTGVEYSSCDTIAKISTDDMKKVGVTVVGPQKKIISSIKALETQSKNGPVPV", "test": "EphA3(h) Eurofins kinase panel", "details": "Compound concentration 1.0 uM"}, "[3]": {"biological_target": "T2, Tyrosine-protein kinase ITK/TSK (Homo sapiens) (UniProt Q08881)", "T2 sequence (whole entry)": "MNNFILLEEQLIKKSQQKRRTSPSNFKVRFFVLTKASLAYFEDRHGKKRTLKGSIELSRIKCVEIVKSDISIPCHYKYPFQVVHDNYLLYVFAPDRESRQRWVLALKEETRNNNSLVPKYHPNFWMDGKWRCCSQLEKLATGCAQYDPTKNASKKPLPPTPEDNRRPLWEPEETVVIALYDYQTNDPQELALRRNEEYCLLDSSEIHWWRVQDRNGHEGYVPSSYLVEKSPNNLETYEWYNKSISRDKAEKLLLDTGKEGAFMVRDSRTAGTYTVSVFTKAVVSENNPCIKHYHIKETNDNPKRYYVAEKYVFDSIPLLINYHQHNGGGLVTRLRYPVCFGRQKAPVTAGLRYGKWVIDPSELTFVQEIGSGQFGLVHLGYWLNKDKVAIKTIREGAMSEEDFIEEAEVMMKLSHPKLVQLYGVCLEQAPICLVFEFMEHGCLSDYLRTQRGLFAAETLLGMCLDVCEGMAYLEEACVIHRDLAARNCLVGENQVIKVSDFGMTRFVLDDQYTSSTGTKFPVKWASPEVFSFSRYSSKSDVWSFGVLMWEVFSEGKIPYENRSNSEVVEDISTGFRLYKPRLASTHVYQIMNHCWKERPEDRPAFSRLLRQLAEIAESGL", "test": "Itk(h) Eurofins kinase panel", "details": "Compound concentration 1.0 uM"}, "[4]": {"biological_target": "Tyrosine-protein kinase Lyn (Homo sapiens) (UniProt P07948)", "sequence (P07948 2-512 limits assumed)": "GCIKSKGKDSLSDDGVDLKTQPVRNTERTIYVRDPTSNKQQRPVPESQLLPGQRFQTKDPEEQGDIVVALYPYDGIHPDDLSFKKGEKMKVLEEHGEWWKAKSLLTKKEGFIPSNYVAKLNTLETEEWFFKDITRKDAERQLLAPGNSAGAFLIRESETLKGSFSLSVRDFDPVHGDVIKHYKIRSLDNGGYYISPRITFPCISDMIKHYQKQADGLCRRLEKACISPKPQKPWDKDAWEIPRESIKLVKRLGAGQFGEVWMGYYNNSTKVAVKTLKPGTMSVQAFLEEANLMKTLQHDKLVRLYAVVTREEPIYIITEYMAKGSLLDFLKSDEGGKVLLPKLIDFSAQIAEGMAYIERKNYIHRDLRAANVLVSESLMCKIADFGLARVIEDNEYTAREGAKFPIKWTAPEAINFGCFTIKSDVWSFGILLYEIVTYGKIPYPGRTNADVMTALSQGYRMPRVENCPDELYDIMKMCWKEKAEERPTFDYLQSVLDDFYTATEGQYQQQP", "test": "Lyn(h) Eurofins kinase panel", "details": "Compound concentration 1.0 uM"}, "[5]": {"biological_target": "Serine/threonine-protein kinase NIM1 (Homo sapiens) (UniProt Q8IY84)", "sequence (Q8IY84 whole entry)": "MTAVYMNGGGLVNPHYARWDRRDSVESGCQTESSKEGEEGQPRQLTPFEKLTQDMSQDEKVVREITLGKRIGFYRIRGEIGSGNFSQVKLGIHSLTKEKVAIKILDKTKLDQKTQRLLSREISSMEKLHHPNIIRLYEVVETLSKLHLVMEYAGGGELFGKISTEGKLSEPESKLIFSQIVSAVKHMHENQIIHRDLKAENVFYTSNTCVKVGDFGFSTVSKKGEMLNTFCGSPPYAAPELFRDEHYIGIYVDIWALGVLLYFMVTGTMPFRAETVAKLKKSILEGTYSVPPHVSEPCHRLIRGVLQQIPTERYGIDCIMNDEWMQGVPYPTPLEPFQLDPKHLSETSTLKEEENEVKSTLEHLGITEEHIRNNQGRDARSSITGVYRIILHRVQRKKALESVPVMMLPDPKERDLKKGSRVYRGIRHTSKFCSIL", "test": "NIM1(h) Eurofins kinase panel", "details": "Compound concentration 1.0 uM"}, "[6]": {"biological_target": "Serine/threonine-protein kinase pim-2 (Homo sapiens) (UniProt Q9P1W9)", "sequence (Q9P1W9 whole entry, looked up)": "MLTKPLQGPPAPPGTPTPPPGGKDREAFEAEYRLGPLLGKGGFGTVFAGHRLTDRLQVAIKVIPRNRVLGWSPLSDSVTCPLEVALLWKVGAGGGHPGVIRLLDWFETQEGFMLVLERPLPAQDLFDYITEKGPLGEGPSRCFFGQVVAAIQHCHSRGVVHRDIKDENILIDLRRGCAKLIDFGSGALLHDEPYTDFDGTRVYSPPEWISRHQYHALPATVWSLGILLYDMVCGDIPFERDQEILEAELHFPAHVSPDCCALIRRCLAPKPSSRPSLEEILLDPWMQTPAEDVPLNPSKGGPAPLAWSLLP", "test": "Pim-2(h) Eurofins kinase panel", "details": "Compound concentration 1.0 uM"}, "[7]": {"biological_target": "T3, Serine/threonine-protein kinase D1 (Homo sapiens) (UniProt Q15139)", "T3 sequence (whole entry)": "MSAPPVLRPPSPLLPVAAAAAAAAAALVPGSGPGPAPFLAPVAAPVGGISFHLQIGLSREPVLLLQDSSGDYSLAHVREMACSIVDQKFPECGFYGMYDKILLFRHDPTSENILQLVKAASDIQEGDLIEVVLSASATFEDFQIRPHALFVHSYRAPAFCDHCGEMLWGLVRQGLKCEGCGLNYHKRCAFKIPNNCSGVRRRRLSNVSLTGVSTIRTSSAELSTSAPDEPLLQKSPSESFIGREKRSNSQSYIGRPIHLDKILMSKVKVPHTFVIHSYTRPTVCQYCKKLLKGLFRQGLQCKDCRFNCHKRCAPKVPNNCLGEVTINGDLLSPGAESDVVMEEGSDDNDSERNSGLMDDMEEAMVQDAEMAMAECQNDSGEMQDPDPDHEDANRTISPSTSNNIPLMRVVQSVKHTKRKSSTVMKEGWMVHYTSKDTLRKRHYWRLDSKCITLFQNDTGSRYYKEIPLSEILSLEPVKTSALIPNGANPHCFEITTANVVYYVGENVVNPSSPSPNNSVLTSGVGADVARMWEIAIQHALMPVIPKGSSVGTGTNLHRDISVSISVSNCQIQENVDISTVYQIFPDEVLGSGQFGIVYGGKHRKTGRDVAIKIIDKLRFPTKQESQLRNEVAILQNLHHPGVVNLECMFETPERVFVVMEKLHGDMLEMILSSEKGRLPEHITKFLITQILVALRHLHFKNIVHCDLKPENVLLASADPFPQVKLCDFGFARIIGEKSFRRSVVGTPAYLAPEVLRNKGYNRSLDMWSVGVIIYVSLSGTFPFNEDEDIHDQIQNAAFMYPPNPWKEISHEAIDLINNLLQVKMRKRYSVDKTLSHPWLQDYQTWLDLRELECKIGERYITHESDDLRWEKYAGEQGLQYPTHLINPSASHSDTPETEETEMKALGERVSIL", "test": "PKCmu (h) Eurofins kinase panel", "details": "Compound concentration 1.0 uM"}, "[8]": {"biological_target": "Mitogen-activated protein kinase 14 (Homo sapiens) (UniProt Q16539)", "sequence (Q16539 whole entry)": "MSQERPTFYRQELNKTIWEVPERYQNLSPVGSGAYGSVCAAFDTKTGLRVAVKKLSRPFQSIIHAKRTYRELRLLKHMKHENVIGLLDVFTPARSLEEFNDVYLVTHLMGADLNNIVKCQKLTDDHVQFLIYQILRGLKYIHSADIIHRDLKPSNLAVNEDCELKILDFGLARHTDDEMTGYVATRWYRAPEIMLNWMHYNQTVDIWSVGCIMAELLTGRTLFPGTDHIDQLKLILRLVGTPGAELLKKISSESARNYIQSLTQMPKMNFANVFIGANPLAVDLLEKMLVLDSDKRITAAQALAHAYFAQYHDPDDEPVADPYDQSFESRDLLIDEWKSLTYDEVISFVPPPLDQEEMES", "test": "SAPK2a(h) Eurofins kinase panel", "details": "Compound concentration 1.0 uM"}, "[9]": {"biological_target": "Serine/threonine-protein kinase WNK2 (Homo sapiens) (UniProt Q9Y3S1)", "sequence (Q9Y3S1 whole entry)": "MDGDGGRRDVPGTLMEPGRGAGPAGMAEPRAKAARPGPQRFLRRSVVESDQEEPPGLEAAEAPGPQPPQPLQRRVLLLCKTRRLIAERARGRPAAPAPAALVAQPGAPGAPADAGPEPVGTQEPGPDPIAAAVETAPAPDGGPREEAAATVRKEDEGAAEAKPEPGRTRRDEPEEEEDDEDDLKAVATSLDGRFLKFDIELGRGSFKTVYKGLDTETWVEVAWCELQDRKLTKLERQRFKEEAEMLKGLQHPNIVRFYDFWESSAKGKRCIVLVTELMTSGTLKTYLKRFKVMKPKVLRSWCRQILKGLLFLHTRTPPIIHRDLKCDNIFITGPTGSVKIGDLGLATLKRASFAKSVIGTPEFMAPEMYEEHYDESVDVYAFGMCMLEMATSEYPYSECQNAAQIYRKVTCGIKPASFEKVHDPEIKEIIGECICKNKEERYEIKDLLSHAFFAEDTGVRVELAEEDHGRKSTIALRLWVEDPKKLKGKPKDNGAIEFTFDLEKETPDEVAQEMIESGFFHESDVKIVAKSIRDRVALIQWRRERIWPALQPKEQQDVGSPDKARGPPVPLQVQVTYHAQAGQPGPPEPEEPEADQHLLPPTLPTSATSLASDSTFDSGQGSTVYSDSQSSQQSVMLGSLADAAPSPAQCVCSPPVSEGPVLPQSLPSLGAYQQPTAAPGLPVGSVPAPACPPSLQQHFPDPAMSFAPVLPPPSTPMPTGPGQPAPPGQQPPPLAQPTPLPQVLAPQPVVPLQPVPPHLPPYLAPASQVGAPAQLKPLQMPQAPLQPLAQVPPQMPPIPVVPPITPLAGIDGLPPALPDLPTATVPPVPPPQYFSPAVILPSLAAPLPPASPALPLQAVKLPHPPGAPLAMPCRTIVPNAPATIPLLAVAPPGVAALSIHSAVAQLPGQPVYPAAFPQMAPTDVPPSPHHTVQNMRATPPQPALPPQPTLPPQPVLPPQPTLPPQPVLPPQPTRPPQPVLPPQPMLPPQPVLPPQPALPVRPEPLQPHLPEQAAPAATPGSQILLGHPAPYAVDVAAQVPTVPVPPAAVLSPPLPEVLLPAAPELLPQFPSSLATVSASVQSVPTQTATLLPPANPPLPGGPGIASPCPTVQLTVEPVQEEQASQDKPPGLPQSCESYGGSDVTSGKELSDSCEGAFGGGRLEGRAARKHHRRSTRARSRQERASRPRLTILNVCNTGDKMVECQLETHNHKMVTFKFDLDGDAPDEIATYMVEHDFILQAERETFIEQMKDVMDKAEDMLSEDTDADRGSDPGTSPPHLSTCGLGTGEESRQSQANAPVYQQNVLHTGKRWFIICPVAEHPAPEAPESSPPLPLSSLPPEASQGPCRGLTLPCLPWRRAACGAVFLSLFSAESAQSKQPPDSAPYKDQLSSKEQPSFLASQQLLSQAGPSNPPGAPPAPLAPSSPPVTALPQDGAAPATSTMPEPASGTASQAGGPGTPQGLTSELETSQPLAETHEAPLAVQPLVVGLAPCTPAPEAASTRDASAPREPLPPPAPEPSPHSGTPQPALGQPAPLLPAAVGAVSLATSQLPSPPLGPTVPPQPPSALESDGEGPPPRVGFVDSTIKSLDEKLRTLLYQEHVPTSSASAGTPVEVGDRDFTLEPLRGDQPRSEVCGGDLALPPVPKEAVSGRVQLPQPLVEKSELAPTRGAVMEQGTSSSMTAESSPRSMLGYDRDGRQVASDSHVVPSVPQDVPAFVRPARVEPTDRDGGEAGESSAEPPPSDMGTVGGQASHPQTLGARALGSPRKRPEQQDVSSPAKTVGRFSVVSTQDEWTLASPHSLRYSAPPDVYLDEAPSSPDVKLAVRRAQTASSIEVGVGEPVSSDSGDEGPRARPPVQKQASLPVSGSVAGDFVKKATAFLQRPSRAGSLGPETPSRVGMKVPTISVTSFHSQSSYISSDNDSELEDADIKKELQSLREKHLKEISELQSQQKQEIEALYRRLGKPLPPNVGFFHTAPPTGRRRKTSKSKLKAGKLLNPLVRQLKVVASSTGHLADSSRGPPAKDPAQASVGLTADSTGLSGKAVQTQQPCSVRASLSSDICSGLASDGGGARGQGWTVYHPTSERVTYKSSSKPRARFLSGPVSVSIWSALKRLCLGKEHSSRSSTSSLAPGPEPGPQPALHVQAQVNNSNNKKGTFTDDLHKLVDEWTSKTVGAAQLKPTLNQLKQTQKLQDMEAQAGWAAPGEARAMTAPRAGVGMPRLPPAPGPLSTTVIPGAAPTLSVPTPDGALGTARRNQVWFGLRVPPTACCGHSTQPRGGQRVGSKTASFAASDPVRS", "test": "WNK2(h) Eurofins kinase panel", "details": "Compound concentration 1.0 uM"}, "[10]": {"biological_target": "Phosphatidylinositol 5-phosphate 4-kinase type-2 alpha (Homo sapiens) (UniProt P48426)", "sequence (P48426 whole entry)": "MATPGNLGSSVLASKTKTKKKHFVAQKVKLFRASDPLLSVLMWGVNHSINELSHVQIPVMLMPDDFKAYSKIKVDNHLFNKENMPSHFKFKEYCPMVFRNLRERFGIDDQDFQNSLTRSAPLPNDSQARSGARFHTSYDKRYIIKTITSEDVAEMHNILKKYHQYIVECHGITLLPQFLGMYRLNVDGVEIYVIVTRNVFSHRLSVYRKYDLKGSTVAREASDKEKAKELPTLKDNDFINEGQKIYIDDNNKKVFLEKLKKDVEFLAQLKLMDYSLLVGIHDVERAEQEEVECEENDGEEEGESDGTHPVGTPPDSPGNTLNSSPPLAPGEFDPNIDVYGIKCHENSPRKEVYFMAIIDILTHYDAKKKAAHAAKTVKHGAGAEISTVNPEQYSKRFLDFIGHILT", "test": "PIP4K2a(h) Eurofins kinase panel", "details": "Compound concentration 1.0 uM"}, "Ramos": {"system": "Ramos", "test": "Ramos cell line Proliferation assay", "format": "functional, Homo sapiens", "details": "time 3 day"}, "LP-1": {"system": "LP-1", "test": "LP-1 cell line Proliferation assay", "format": "functional, Homo sapiens", "details": "time 3 day"}, "A2780": {"system": "A2780", "test": "A2780 cell line Proliferation assay", "format": "functional, Homo sapiens", "details": "time 3 day"}, "[11]": {"biological_target": "Ribosomal protein S6 kinase alpha-2 (Homo sapiens, UniProt Q15349)", "sequence (Q15349 whole entry)": "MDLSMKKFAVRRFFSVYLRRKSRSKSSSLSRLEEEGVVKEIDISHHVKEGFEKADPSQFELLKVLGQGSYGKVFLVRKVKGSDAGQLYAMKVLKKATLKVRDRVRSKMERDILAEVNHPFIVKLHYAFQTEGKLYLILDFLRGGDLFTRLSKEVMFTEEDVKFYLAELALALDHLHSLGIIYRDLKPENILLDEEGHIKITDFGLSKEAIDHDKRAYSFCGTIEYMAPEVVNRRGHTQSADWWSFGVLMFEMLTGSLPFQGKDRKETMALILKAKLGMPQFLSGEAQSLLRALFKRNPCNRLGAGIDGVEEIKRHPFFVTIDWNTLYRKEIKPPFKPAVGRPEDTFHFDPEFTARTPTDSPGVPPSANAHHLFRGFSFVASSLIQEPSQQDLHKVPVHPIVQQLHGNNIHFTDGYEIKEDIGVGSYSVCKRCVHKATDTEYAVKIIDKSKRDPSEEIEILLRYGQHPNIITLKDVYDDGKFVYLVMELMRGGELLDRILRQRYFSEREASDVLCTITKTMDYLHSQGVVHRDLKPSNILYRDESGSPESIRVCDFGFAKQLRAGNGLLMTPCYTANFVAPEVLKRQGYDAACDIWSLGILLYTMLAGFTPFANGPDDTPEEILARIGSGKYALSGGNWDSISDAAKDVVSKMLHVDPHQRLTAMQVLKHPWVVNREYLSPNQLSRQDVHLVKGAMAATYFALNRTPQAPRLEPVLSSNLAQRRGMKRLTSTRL"}}}
{"compound": "CCc1ccccc1C(=O)Nc1n[nH]c2c(C)c(F)c(C3C(C#N)=C(C)N(C)C(C)=C3C#N)cc12", "note": "[BAY-3827]", "values": [{"measurement": "% residual kinase activity", "setting": "[1]", "value": 138, "unit": "%"}, {"measurement": "% residual kinase activity", "setting": "[2]", "value": 112, "unit": "%"}, {"measurement": "% residual kinase activity", "setting": "[3]", "value": 106, "unit": "%"}, {"measurement": "% residual kinase activity", "setting": "[4]", "value": 110, "unit": "%"}, {"measurement": "% residual kinase activity", "setting": "[5]", "value": 93, "unit": "%"}, {"measurement": "% residual kinase activity", "setting": "[6]", "value": 102, "unit": "%"}, {"measurement": "% residual kinase activity", "setting": "[7]", "value": 96, "unit": "%"}, {"measurement": "% residual kinase activity", "setting": "[8]", "value": 101, "unit": "%"}, {"measurement": "% residual kinase activity", "setting": "[9]", "value": 87, "unit": "%"}, {"measurement": "% residual kinase activity", "setting": "[10]", "value": 105, "unit": "%"}, {"measurement": "Cell Proliferation IC50", "setting": "Ramos", "value": 12100, "unit": "nM"}, {"measurement": "Cell Proliferation IC50", "setting": "LP-1", "value": 1900, "unit": "nM"}, {"measurement": "Cell Proliferation IC50", "setting": "A2780", "value": ">33000", "unit": "nM"}, {"measurement": "IC50", "setting": "[11]", "value": 24, "unit": "nM"}]}
